In assay [1] the target is T1, Progesterone receptor (Ovis aries) (UniProt Q28590).
T1 sequence (whole entry): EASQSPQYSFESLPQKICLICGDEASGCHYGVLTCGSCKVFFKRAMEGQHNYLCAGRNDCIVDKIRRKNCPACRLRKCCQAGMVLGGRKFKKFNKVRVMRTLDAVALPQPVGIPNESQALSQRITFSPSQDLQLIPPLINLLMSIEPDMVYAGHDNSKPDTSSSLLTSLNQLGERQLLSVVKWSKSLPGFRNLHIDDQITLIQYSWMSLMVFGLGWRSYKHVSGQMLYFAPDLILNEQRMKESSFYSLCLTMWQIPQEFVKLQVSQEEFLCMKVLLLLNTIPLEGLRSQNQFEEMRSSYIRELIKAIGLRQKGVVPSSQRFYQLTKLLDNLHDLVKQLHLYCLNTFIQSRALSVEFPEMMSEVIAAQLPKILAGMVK
Put plainly: Relative binding affinity to sheep progesterone receptor.

For assay [2], the target named is T2, Progesterone receptor (Oryctolagus cuniculus) (UniProt P06186).
T2 sequence (whole entry): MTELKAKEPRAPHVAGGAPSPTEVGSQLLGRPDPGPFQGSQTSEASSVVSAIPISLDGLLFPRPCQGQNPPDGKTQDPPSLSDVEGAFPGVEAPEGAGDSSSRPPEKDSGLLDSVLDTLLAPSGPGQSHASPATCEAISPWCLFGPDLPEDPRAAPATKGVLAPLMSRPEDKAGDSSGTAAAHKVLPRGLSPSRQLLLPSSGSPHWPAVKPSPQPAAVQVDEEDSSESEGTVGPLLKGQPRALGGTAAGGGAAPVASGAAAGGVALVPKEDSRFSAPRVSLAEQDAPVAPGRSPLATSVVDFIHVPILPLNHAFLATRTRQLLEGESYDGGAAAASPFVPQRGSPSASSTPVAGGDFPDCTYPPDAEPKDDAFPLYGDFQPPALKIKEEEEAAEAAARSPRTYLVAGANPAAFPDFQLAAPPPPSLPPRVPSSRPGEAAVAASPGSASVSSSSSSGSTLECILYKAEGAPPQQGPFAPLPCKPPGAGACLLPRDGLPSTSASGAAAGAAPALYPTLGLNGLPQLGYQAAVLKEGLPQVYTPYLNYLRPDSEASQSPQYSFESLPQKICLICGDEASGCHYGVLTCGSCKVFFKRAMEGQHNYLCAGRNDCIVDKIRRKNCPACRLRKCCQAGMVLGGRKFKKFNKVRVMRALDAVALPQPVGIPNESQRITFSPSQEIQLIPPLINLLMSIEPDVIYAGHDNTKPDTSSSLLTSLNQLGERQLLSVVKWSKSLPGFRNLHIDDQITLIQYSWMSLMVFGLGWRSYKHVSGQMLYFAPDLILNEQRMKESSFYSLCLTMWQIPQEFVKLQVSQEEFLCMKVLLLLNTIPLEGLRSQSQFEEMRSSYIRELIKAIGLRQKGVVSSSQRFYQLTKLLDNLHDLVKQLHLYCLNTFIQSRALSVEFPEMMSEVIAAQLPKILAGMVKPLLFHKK
Put plainly: Relative binding affinity to rabbit progesterone receptor.

The species named for assay [3] is Cavia porcellus. The assay is described as follows: Relative binding affinity to guinea pig progesterone receptor.
For assay [4], the target named is T3, Progesterone receptor (Homo sapiens) (UniProt P06401).
T3 sequence (whole entry): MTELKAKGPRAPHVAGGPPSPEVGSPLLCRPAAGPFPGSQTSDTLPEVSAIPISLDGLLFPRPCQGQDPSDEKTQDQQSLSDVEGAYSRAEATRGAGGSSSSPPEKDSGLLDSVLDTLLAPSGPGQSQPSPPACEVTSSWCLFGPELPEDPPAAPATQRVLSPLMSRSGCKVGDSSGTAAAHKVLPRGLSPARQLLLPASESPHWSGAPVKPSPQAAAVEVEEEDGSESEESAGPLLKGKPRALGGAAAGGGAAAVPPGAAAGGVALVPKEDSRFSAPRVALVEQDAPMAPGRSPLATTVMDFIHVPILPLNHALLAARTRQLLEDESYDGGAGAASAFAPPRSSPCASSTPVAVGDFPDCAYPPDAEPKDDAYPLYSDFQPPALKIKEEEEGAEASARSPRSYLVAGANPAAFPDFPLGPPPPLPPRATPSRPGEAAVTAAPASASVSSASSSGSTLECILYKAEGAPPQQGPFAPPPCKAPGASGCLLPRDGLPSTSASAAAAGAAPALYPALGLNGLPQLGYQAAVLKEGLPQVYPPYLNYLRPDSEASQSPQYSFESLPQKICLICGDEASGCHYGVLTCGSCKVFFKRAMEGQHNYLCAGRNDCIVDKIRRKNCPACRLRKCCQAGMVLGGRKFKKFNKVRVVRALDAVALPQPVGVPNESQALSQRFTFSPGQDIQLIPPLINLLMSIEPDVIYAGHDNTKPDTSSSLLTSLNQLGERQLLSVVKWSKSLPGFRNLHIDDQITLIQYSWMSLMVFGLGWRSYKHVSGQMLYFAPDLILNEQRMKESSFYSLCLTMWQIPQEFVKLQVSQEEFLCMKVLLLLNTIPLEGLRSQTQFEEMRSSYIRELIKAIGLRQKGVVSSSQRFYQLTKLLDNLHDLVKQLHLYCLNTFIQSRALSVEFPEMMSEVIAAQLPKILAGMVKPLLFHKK

The structures appear in SMILES notation.

On to `CC(=O)[C@H]1CC[C@H]2[C@@H]3CC[C@@H]4CC(=O)CC[C@]4(C)[C@H]3CC[C@]12C`, for which the log(RBA) in assay [1] is 0.6; in assay [2] it was 1.08; in assay [3] it was 0.7; in assay [4] it was 1.08.

Regarding `C[C@]12CC[C@H]3[C@@H](CCC4=CC(=O)CC[C@@]43C)[C@@H]1CC[C@@H]2C(=O)CO`, the log(RBA) in assay [1] is 1.4; in assay [2], 1.4; in assay [3] it was 1.15; in assay [4] it was 1.23.

`C#C[C@]1(OC(C)=O)CC[C@H]2[C@@H]3CCC4=CCCC[C@@H]4[C@H]3CC[C@@]21C`: the log(RBA) was -1 in assay [1], 0 in assay [2], -2 in assay [3] and -0.7 in assay [4].

In assay [2], `CC(=O)[C@H]1CC[C@H]2[C@@H]3CCC4=CC(=O)CCC4=C3CC[C@]12C` registered a log(RBA) of 2.

Turning to `CC(=O)[C@H]1CC[C@H]2[C@@H]3[C@H](C)CC4=CC(=O)CC[C@]4(C)[C@H]3CC[C@]12C`, the log(RBA) was 1.32 in assay [1], 1.61 in assay [2], 1.67 in assay [3] and 1.43 in assay [4].

Regarding `CC[C@@H]1C[C@H]2[C@@H]3C=CC4=CC(=O)CC[C@@H]4[C@H]3CC[C@]2(C)[C@H]1C(=O)CF`, the log(RBA) in assay [1] was found to be 2.13; in assay [2], 2.24; in assay [3], 1.17; in assay [4], 2.15.

In the case of `CC(=O)OCC(=O)[C@H]1CC[C@H]2[C@@H]3CCC4=CC(=O)CC[C@]4(C)[C@H]3CC[C@]12C`, the log(RBA) in assay [1] worked out at 1; in assay [2] it was 1.69; in assay [3], 1.34; in assay [4], 1.

For `C#C[C@]1(O)CC[C@H]2[C@@H]3CCC4=CC(=O)CC[C@@H]4[C@H]3CC[C@@]21CCC`, the log(RBA) in assay [2] was found to be 1.54.

For `C[C@]12C[C@H](O)[C@H]3[C@@H](CCC4=CC(=O)CC[C@@]43C)[C@@H]1CC[C@@H]2C(=O)CO`, the log(RBA) in assay [1] was determined as 0; in assay [2], 0.02; in assay [3] it was 0.447; in assay [4], 0.3.

With `C[C@H](O)[C@H]1CC[C@H]2[C@@H]3CCC4=CC(=O)CC[C@]4(C)[C@H]3CC[C@]12C`, the log(RBA) stood at 0.7 in assay [1], 0.778 in assay [2], 0.6 in assay [3] and 1 in assay [4].

On to `C#C[C@]1(O)CC[C@H]2[C@@H]3CCC4=CC(=O)CC[C@@H]4[C@H]3CC[C@@]21CC`, for which the log(RBA) was 2 in assay [1], 2.62 in assay [2], 1.43 in assay [3] and 2.22 in assay [4].

For the molecule `CC(=O)O[C@]1(C(C)=O)CC[C@H]2[C@@H]3C=C(C)C4=CC(=O)CC[C@]4(C)[C@H]3CC[C@@]21C`, the log(RBA) in assay [1] is 1.51; in assay [2] it was 2; in assay [3], -0.3; in assay [4], 1.94.

Take `CC(=O)[C@H]1CC[C@H]2[C@@H]3CCC4=CC(=O)CCC4=C3C=C[C@]12C`: in assay [2], the log(RBA) came to 1.3.

On to `CC(=O)O[C@]1(C(C)=O)CC[C@H]2[C@@H]3C[C@H](C)C4=CC(=O)CC[C@]4(C)[C@H]3CC[C@@]21C`, for which the log(RBA) in assay [1] is 1.86; in assay [2], 2; in assay [3] it was 1.11; in assay [4] it was 2.29.

Turning to `CC(=O)[C@@]1(C)CC[C@H]2[C@@H]3CCC4=CC(=O)CCC4=C3C=C[C@@]21C`, the log(RBA) in assay [2] amounted to 1.74.

On to `CC(=O)[C@H]1CC[C@H]2[C@@H]3CC=C4C[C@@H](O)CC[C@]4(C)[C@H]3CC[C@]12C`, for which the log(RBA) is -0.301 in assay [2], -0.52 in assay [3] and -0.69 in assay [4].

On to `C[C@]12CC[C@H]3[C@@H](CCC4=CC(=O)CC[C@@]43C)[C@@H]1CC[C@@H]2O`, for which the log(RBA) in assay [1] is 0; in assay [2], -0.22; in assay [3], 0.

Take `CC(=O)[C@@]1(O)CC[C@H]2[C@@H]3CCC4=CC(=O)CC[C@]4(C)[C@H]3CC[C@@]21C`: the log(RBA) is -0.3 in assay [1], -0.097 in assay [2], -0.52 in assay [3] and -0.15 in assay [4].

`CC(=O)[C@H]1CC[C@H]2[C@@H]3CCC4=CC(=O)CC[C@]4(CO)[C@H]3CC[C@]12C`: the log(RBA) in assay [1] is -0.52; in assay [2], -0.301; in assay [3] it was -0.22; in assay [4], -0.52.

As to `C#C[C@]1(O)CC[C@H]2[C@@H]3CC[C@H]4C[C@H](O)CC[C@@H]4[C@H]3CC[C@@]21C`, the log(RBA) was -1.52 in assay [1], -1 in assay [2], -2 in assay [3] and -1 in assay [4].

As to `CCC(=O)[C@@]1(C)CC[C@H]2[C@@H]3CCC4=CC(=O)CCC4=C3CC[C@@]21C`, the log(RBA) in assay [2] was 2.48.

Turning to `C[C@@H](O)[C@H]1CC[C@H]2[C@@H]3CCC4=CC(=O)CC[C@]4(C)[C@H]3CC[C@]12C`, the log(RBA) was determined as 0 in assay [1], 1.01 in assay [2], 0 in assay [3] and 0.3 in assay [4].

For `C[C@]12CC[C@H]3[C@@H](CCC4=CC(=O)CC[C@@H]43)[C@@H]1CC[C@@H]2O`, the log(RBA) in assay [1] was found to be 1; in assay [2], 1; in assay [3], 1.6; in assay [4] it was 1.14.

Take `CC(=O)[C@H]1CC[C@H]2[C@@H]3CCC4=CC(=O)C=C[C@]4(C)[C@H]3CC[C@]12C`: the log(RBA) was found to be 1.2 in assay [1], 1.3 in assay [2], 1.64 in assay [3] and 1.48 in assay [4].

Take `C#C[C@]1(O)CC[C@H]2[C@@H]3[C@H](C)CC4=C(CCC(=O)C4)[C@H]3CC[C@@]21C`: the log(RBA) is 0.7 in assay [1], 0.903 in assay [2], -0.4 in assay [3] and 0.78 in assay [4].

Turning to `CC(=O)[C@@]1(C)CC[C@H]2[C@@H]3CCC4=CC(=O)CC[C@@H]4[C@H]3CC[C@@]21C`, the log(RBA) in assay [2] is 2.7.

As to `C#C[C@]1(O)CC[C@H]2[C@@H]3CCC4=CC(=O)CCC4=C3C=C[C@@]21CC`, the log(RBA) in assay [2] came out at 1.3.

The molecule `CC(=O)[C@@]1(C)CC[C@H]2[C@@H]3CCC4=CC(=O)CCC4=C3CC[C@@]21C` returned a log(RBA) in assay [2] of 2.3.

In turn, `C#C[C@]1(O)CC[C@H]2[C@@H]3CCC4=CC(=O)CCC4=C3C=C[C@@]21CCC` had a log(RBA) in assay [2] of 0.7.

With `CCCCCC(=O)O[C@]1(C(C)=O)CC[C@H]2[C@@H]3CCC4=CC(=O)CC[C@]4(C)[C@H]3CC[C@@]21C`, the log(RBA) in assay [2] and in assay [4] was 1.88 each time.

`C[C@]12CCC(=O)C[C@@H]1CC[C@@H]1[C@@H]2CC[C@]2(C)[C@@H](O)CC[C@@H]12`: the results for the log(RBA) in assay [1] and in assay [4] were 0 and 0.3, respectively.

Molecule `C#C[C@]1(O)CC[C@H]2[C@@H]3CCC4=CC(=O)CCC4=C3C=C[C@@]21C` returned a log(RBA) in assay [2] of 1.3.

The record behind these values is ChEMBL document CHEMBL3272135, “Quantitative relationships between steroid structure and binding to putative progesterone receptors” (J Med Chem, 1977).
